In data set [1] the target is T1, P-gp (Homo sapiens, UniProt P08183).
T1 construct: expressed in transfected cells; host or cells: MDCK-MDR1 (Madin-Darby Canine Kidney cells, gift of Prof. P. Borst, NKI-AVL)
The data set can be described thus: ATP cell depletion (ATPlite assay) in MDCK-MDR1 cells. The format is cell-based. To be noted: Yes/No. On the procedure:
The MDCK-MDR1 cells were seeded into 96-well microplate in 100 µL of complete medium at a density 20,000 cells per well. The plate was incubated overnight (O/N) in a humidified atmosphere 5% CO2 at 37 °C. The medium was removed and 100 µL of complete medium either alone or containing different concentrations (ranging from 1 to 100 µM) of test compounds was added. The plate was incubated for 2 h in a humidified 5% CO2 atmosphere at 37 °C. 50 µL of mammalian cell lysis solution was added to all wells and the plate shacked for five minutes in an orbital shaker. 50 µL of substrate solution was added to all wells and the plate shacked for five minutes in an orbital shaker. The plate was dark adapted for ten minutes and the luminescence was measured.
(§1) The interaction potency between the designed compounds and P-gp was evaluated by measuring the transport inhibition of the pro-fluorescent probe Calcein-AM, that is a P-gp substrate, in a cell line overexpressing P-gp (MDCK-MDR1)[47]. The P-gp interacting profile was further investigated with two other assays: the Apparent Permeability (Papp) determination (BA/AB) in Caco-2 cell monolayer[48]^,[49], and the ATP cell depletion in the MDCK-MDR1 cell line[50]. Taking into account the results of the combined tests, an interacting compound can be classified as substrate or inhibitor. Papp determination measures the ratio between two fluxes: from the basolateral to apical compartments (BA, representative of passive diffusion) and from the apical to basolateral compartments (AB, representative of active transport). […] In the same manner, if (BA/AB) >2, the compound should probably be classified as a substrate. […] The selectivity of ligands 1–26 was evaluated by detecting their activity towards the other ABC transporters MRP1 and BCRP, by measuring the inhibition of the efflux of Calcein-AM (i.e., also a MRP1 substrate) in cells overexpressing MRP1 (MDCK-MRP1 cells), and the inhibition of the efflux of the fluorescent probe Hoechst 33342 (i.e. a BCRP substrate) in cells overexpressing BCRP (MDCK-BCRP cells), respectively.

The next data set has as its target T2, BCRP (Homo sapiens, UniProt Q9UNQ0).
T2 construct: expressed in transfected cells; host or cells: MDCK-BCRP (Madin-Darby Canine Kidney cells, gift of Prof. P. Borst, NKI-AVL)
T2 sequence (Q9UNQ0 1-655): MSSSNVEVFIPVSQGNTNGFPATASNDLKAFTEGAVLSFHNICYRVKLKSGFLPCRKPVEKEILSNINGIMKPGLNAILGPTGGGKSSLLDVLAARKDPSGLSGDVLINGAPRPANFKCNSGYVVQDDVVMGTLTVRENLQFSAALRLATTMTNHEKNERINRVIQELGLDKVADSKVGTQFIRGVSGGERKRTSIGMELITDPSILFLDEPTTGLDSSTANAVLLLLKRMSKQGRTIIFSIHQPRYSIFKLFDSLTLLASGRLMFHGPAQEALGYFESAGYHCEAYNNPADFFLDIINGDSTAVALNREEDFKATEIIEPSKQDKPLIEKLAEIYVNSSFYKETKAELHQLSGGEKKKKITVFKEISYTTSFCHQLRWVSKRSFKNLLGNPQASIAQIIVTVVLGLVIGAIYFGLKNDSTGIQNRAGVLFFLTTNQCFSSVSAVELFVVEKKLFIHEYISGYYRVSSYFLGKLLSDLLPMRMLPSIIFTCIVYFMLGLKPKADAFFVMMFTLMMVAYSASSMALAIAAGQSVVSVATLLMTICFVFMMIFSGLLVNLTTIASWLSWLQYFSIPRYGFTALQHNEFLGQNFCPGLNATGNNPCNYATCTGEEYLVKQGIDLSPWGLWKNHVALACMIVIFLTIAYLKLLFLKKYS
The data set can be described thus: Inhibition of Hoechst 33342 efflux in MDCK-BCRP cells. It is filed as cell-based. To be noted: Hoechst 33342, MDCK-BCRP cells; NA: not active. On the procedure:
These experiments were carried out as described by Teodori et al.[34]. Each cell line (30 000 cells per well) was seeded into black CulturePlate 96/wells plate with 100 µL medium and allowed to become confluent overnight. 100 µL of test compounds were solubilised in culture medium and added to monolayers, with final concentrations ranging from 1 to 100 µM. 96/Wells plate was incubated for 30 min in a humidified atmosphere 5% CO2 at 37 °C. Hoechst 33342 was added in 100 µl of phosphate-buffered saline (PBS) to yield a final concentration of 8 µM and plate was incubated for 30 min in a humidified atmosphere 5% CO2 at 37 °C. The supernatants were drained, and the cells were fixed for 20 min under light protection using 100 µL per well of a 4% PFA solution. Each well was washed three times with ice cold PBS. Saline buffer was added to each well and the plate was read with Victor3 (PerkinElmer) at excitation and emission wavelengths of 340/35 nm and 485/20 nm, respectively. In these experimental conditions, Hoechst 33342 accumulation in the absence and in the presence of tested compounds was evaluated and fluorescence basal level was estimated with untreated cells. In treated wells, the increase of fluorescence with respect to basal level was measured. EC50 values were determined by fitting the fluorescence increase percentage versus log[dose]. […]

In data set [2] the target is T1, P-gp. Nature of the data set: Inhibition of Calcein-AM transport in MDCK-MDR1 cells. The format is cell-based. To be noted: Calcein-AM, MDCK-MDR1 cells; mean ± SEM of two experiments. On the procedure: These experiments were carried out as previously described by Teodori et al. with minor modifications. Each cell line (30 000 cells per well) was seeded into black CulturePlate 96/wells plate with 100 µL medium and allowed to become confluent overnight. 100 µL of test compounds were solubilised in culture medium and added to monolayers, with final concentrations ranging from 1 nM to 100 µM. 96/Wells plate was incubated for 30 min in a humidified atmosphere 5% CO2 at 37 °C. Calcein-AM was added in 100 µL of Phosphate Buffered Saline (PBS) to yield a final concentration of 2.5 µM and plate was incubated for 30 min in a humidified atmosphere 5% CO2 at 37 °C. Each well was washed 3 times with ice cold PBS. Saline buffer was added to each well and the plate was read with Victor3 (PerkinElmer) at excitation and emission wavelengths of 485 and 535 nm, respectively. In these experimental conditions, Calcein cell accumulation in the absence and in the presence of tested compounds was evaluated and fluorescence basal level was estimated with untreated cells. In treated wells the increase of fluorescence with respect to basal level was measured. EC50 values were determined by fitting the fluorescence increase percentage versus log[dose].
The interaction potency between the designed compounds and P-gp was evaluated by measuring the transport inhibition of the pro-fluorescent probe Calcein-AM, that is a P-gp substrate, in a cell line overexpressing P-gp (MDCK-MDR1)[47]. The P-gp interacting profile was further investigated with two other assays: the Apparent Permeability (Papp) determination (BA/AB) in Caco-2 cell monolayer[48]^,[49], and the ATP cell depletion in the MDCK-MDR1 cell line[50]. […] Papp determination measures the ratio between two fluxes: from the basolateral to apical compartments (BA, representative of passive diffusion) and from the apical to basolateral compartments (AB, representative of active transport). […] In the same manner, if (BA/AB) >2, the compound should probably be classified as a substrate.

A short description of data set [3]: Apparent permeability (Papp) determination (BA/AB) in Caco-2 cell monolayer. The format is in vitro ADME. Particulars: human, Caco-2 monolayer. On the procedure:
Caco-2 cells were seeded onto a Millicell® assay system (Millipore), where a cell monolayer is set in between a filter cell and a receiver plate, at a density of 10 000 cells/well[46]. The culture medium was replaced every 48 h and the cells kept for 21 days in culture. The Trans Epithelial Electrical Resistance (TEER) of the monolayers was measured daily, before and after the experiment, using an epithelial volt-ohmmeter (Millicell®-ERS). Generally, TEER values greater than 1000 Ω for a 21 days culture, are considered optimal.
After 21 days of Caco-2 cell growth, the medium was removed from filter wells and from the receiver plate, which were filled with fresh HBSS buffer (Invitrogen). This procedure was repeated twice, and the plates were incubated at 37 °C for 30 min. After incubation time, the HBSS buffer was removed and drug solutions and reference compounds were added to the filter well at the concentration of 100 µM, while fresh HBSS was added to the receiver plate. The plates were incubated at 37 °C for 120 min. Afterwards, samples were removed from the apical (filter well) and basolateral (receiver plate) side of the monolayer to measure the permeability.
as §1

Another data set relates to MDCK-MDR1 cells. Nature of the data set: Co-administration assay with doxorubicin (MTT), MDCK-MDR1 cells. The format is cell-based, canine. To be noted: 10 µM, MDCK cells overexpressing P-gp. On the procedure: The co-administration assay with doxorubicin was performed in MDCK-MDR1, HT29, HT29/DX, A549 and A549/DX cells at 48 h. On day 1, 10,000 cells/well were seeded into 96-well plates in a volume of 100 µL of fresh medium. On day 2, the tested drug was added alone to the cells at different concentrations (ranging from 40 nM to 10 µM). On day 3, the medium was removed and the drug at the same concentrations was added alone and in co-administration with 10 µM doxorubicin to the cells. After the established incubation time with the tested drug, MTT (0.5 mg/mL) was added to each well, and after 3 − 4 h incubation at 37 °C, the supernatant was removed. The formazan crystals were solubilised using 100 µL of DMSO/EtOH (1:1), and the absorbance values at 570 and 630 nm were determined on the microplate reader HTX Synergy (Bio-Tek Instruments).

Where a name gives a salt, the structure may show the parent alone. Bounds are passed on as bounds.

T1 sequence (P08183 whole entry): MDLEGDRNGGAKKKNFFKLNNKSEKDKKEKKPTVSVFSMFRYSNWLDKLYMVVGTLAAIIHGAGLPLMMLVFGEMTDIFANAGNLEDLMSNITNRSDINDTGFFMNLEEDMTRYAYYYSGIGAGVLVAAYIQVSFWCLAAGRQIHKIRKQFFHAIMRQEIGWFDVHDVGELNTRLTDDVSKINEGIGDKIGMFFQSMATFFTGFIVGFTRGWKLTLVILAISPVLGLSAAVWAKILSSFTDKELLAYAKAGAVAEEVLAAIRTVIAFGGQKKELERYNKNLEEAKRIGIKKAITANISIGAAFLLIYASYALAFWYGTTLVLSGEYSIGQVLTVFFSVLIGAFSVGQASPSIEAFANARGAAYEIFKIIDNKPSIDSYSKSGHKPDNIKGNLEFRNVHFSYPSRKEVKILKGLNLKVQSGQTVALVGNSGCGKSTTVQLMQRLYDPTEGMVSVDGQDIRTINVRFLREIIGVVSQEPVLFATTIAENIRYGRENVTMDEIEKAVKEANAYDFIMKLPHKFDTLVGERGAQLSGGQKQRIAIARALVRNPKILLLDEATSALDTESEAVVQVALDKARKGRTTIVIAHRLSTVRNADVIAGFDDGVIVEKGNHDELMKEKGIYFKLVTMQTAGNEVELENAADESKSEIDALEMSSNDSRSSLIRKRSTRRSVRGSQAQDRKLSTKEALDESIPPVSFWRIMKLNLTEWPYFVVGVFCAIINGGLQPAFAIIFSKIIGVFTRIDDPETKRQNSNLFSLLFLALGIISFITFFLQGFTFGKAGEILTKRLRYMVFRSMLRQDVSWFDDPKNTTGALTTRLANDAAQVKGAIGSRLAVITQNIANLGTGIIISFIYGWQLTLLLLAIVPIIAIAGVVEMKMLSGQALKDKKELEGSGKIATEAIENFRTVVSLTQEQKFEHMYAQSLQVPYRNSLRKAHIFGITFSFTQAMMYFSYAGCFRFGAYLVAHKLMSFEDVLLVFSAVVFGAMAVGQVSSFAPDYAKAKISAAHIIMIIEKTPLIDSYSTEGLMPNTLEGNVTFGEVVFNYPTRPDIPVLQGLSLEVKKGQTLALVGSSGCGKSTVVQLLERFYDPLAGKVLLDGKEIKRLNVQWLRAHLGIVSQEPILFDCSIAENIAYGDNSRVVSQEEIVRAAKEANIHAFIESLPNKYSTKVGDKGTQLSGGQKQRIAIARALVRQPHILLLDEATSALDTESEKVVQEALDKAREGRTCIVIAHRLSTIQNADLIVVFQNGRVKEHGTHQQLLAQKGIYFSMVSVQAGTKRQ

For the compound `COc1cc2c(cc1OC)CN(CCc1ccc(NC(=O)c3c(OC)ccc4ccccc34)cc1)CC2` (as salt: hydrochloride) [Compound 7, N-(4–(2-(6,7-dimethoxy-3,4-dihydroisoquinolin-2(1H)-yl)ethyl)phenyl)-2-methoxy-1-naphthamide], the melting point was 239 to 241 °C.
As to `COc1cc2c(cc1OC)CN(CCc1ccc(NC(=O)c3cc(OC)c(OC)cc3NC(=O)c3cnc4ccccc4c3)cc1)CC2` [tariquidar, reference compound], the ATP cell depletion result at P-gp [1] is “Yes^f”. Further, the results for the EC50 at BCRP and at P-gp [2] were 10 ± 5 nM and 44 ± 1 nM, respectively. Moreover, the efflux ratio at 120 min, 100 µM in data set [3] was above 20.
`COc1cc2c(cc1OC)CN(CCc1ccc(NC(=O)c3c(OC)cccc3OC)cc1)CC2` (as salt: hydrochloride) [Compound 4, N-(4–(2-(6,7-dimethoxy-3,4-dihydroisoquinolin-2(1H)-yl)ethyl)phenyl)-2,6-dimethoxybenzamide]: the melting point was in the range of 212 to 214 °C.
The same measure, in the same setting: as for `COc1cc2c(cc1OC)CN(CCc1ccc(NC(=O)c3c(OC)c(OC)cc4ccccc34)cc1)CC2` (as salt: hydrochloride) [Compound 8, N-(4–(2-(6,7-dimethoxy-3,4-dihydroisoquinolin-2(1H)-yl)ethyl)phenyl)-2,3-dimethoxy-1-naphthamide], the figure is 245 to 248 °C.
As to `COc1cccc2c1C(=O)c1c(O)c3c(c(O)c1C2=O)C[C@@](O)(C(=O)CO)C[C@@H]3O[C@H]1C[C@H](N)[C@H](O)[C@H](C)O1` [doxorubicin, reference compound], the “cytotoxicity of doxorubicin alone” value with MDCK-MDR1 cells is reported as “did not show cytotoxicity”.
For `COc1ccc2nccc(C(=O)Nc3ccc(CCN4CCc5cc(OC)c(OC)cc5C4)cc3)c2c1` (as salt: hydrochloride) [Compound 13, N-(4–(2-(6,7-dimethoxy-3,4-dihydroisoquinolin-2(1H)-yl)ethyl)phenyl)-6-methoxyquinoline-4-carboxamide], the melting point is 228 to 230 °C.

(Values after paper PMC7178819, “6,7-Dimethoxy-2-phenethyl-1,2,3,4-tetrahydroisoquinoline amides and corresponding ester isosteres as multidrug resistance reversers” (Journal of Enzyme Inhibition and Medicinal Chemistry, 2020).)
